Test results from ChEMBL document CHEMBL1145013, “Studies on the mechanisms of activation of indolequinone phosphoramidate prodrugs” (J Med Chem, 2003).

Experiments:
[1] = Half life in presence of sodium dimethyldithiocarbamate; format: ADME; conditions: solution containing sodium dimethyldithiocarbamate
[2] = Half life in presence of glutathione; format: ADME; conditions: solution containing glutathione

With `COC1=CC(=O)c2c(cc(COP(N)(=O)N(CCBr)CCBr)n2C)C1=O` (stereo not drawn) as the compound, how does the half-life [1] read?
Its half-life is 26 min.

What about the half-life [2] of the same compound?
The half-life was 653 min.

With `COC1=CC(=O)c2c(c(COP(N)(=O)N(CCBr)CCBr)cn2C)C1=O` (stereo not drawn) as the compound, how does the half-life [1] read?
The half-life was 14 min.

What about the half-life [2] of the same compound?
Its half-life is 35 min.

For `COC1=CC(=O)c2c(c(COP(N)(=O)N3CCOCC3)cn2C)C1=O` (stereo not drawn), which half-life [1] is on record?
Its half-life is 34 min.

And the half-life [2]?
Its half-life is 83 min.

With `COC1=CC(=O)c2c(cc(COP(N)(=O)N3CCOCC3)n2C)C1=O` (stereo not drawn) as the compound, how does the half-life [1] read?
Its half-life is 659 min.

And the half-life [2]?
The half-life was 716 min.
